Measurements from ChEMBL document CHEMBL1137708, “3D-QSAR studies of boron-containing dipeptides as proteasome inhibitors with CoMFA and CoMSIA methods” (Eur J Med Chem, 2009).

Assay: Inhibition of SDS-activated 20S proteasome activity in rabbit muscle
Type: tissue-based, Oryctolagus cuniculus, Muscle tissue

Structure (SMILES) | pKi
CC(C)C[C@H](NC(=O)[C@H](Cc1cccc2ccccc12)NS(C)(=O)=O)B1OCCNCCO1 | 9.55
CC(C)C[C@H](NC(=O)[C@H](Cc1ccccc1)NC(=O)N1CCOCC1)B(O)O | 9.09
CC(C)C[C@H](NC(=O)[C@H](CC(C)C)NC(=O)OCc1ccccc1)B(O)O | 8.52
CC(C)C[C@H](NC(=O)[C@H](Cc1ccc(OCc2ccccn2)cc1)NC(=O)N1CCOCC1)B(O)O | 9.7
CC(C)C[C@H](NC(=O)[C@H](Cc1ccccn1)NC(=O)c1ccc2ccccc2n1)B(O)O | 8.85
CC(C)C[C@H](NC(=O)[C@H](Cc1ccccc1)NC(=O)c1ccccc1)B(O)O | 9.82
CC(C)C[C@H](NC(=O)[C@H](Cc1ccccc1)NC(=O)c1cc[nH]c1)B(O)O | 9.85
CC(C)C[C@H](NC(=O)[C@H](CC(C)C)N(C)C(=O)OCc1ccccc1)B(O)O | 6
CC(C)C[C@H](NC(=O)[C@H](Cc1ccccn1)NC(=O)c1cnccn1)B(O)O | 8.15
CC(C)C[C@H](NC(=O)[C@H](Cc1c[nH]cn1)NC(=O)OCc1ccccc1)B(O)O | 7.6
CC(C)C[C@H](NC(=O)[C@H](Cc1c[nH]c2ccccc12)NS(C)(=O)=O)B(O)O | 8.24
CC(C)C[C@H](NC(=O)[C@H](Cc1cccc2ccccc12)NC(=O)c1cnc2ccccc2n1)B(O)O | 9.85
B[C@H](CC(C)C)NC(=O)[C@H](Cc1cccc2ccccc12)NC(=O)N1CCOCC1 | 8.7
CC(C)C[C@H](NC(=O)[C@H](Cc1cccc2ccccc12)NC(=O)N1CCOCC1)B1OCCNCCO1 | 9.82
CC(C)C[C@H](NC(=O)[C@H](Cc1ccc2ccccc2n1)NC(=O)N1CCOCC1)B(O)O | 8.66
CC(C)C[C@H](NC(=O)[C@H](Cc1cccc2ccccc12)NC(=O)C1CCCCC1)B(O)O | 10.52
CC(C)C[C@H](NC(=O)[C@H](Cc1ccccn1)NS(=O)(=O)c1cccc2cccnc12)B(O)O | 7.54
CB(C)[C@H](CC(C)C)NC(=O)[C@H](CCc1ccccc1)NC(=O)c1ccc2ccccc2n1 | 8.55
CC(C)C[C@H](NC(=O)[C@@H](N)Cc1cccc2ccccc12)B(O)O | 8.12
CC(C)C[C@H](NC(=O)[C@H](Cc1ccc2ncccc2c1)NC(=O)N1CCOCC1)B(O)O | 8.22
CC(C)C[C@@H](NC(=O)[C@H](N)Cc1cccc2ccccc12)B(O)O.Cl (single isomer, unassigned) | 8.41
CC(C)CC(NC(=O)[C@H](Cc1ccccc1)NC(=O)CCc1ccccc1)B(O)O (single isomer, unassigned) | 9.82
CC(C)CC(NC(=O)[C@H](Cc1ccc(F)cc1)NC(=O)c1ccccn1)B(O)O (single isomer, unassigned) | 9.08
CC(C)CC(NC(=O)C(CC(C)C)NC(=O)OCc1ccccc1)B1O[C@@H]2[C@H]3C[C@@H](C[C@]2(C)O1)C3(C)C (single isomer, unassigned) | 6.92

Now from value to compound:

pKi | Structure (SMILES)
8.27 | CC(=O)N[C@@H](Cc1cccnc1)C(=O)N[C@@H](CC(C)C)B(O)O
8.2 | CC(C)C[C@H](NC(=O)[C@H](Cc1cccnc1)NS(C)(=O)=O)B(O)O
9.77 | Cc1ccc(S(=O)(=O)N[C@@H](Cc2cccc3ccccc23)C(=O)N[C@@H](CC(C)C)B(O)O)cc1
9.6 | CC(C)C[C@H](NC(=O)[C@H](Cc1ccccc1)NC(=O)c1cccnc1)B(O)O
9.38 | CC(C)C[C@H](NC(=O)[C@H](Cc1ccccc1)NC(=O)c1ccccn1)B(O)O
9.02 | CC(C)C[C@H](NC(=O)[C@H](Cc1ccc(F)cc1)NC(=O)c1cnccn1)B(O)O
6.82 | CC(C)C[C@H](NC(=O)[C@@H](N)Cc1cccnc1)B(O)O
8.66 | CB(C)[C@H](CC(C)C)NC(=O)[C@H](CCc1ccccc1)NC(=O)N1CCOCC1
10.06 | CC(C)C[C@H](NC(=O)[C@H](Cc1cccc2ccccc12)NC(=O)c1ccccc1)B(O)O
8.52 | CC(C)C[C@H](NC(=O)[C@H](Cc1c[nH]c2ccccc12)NC(=O)N1CCOCC1)B(O)O
9.72 | CC(C)C[C@H](NC(=O)[C@H](Cc1ccccc1)NC(=O)c1ccc2ccccc2n1)B(O)O
9.85 | CC(C)C[C@H](NC(=O)[C@H](Cc1ccccc1)NC(=O)NCc1ccccc1)B(O)O
7.5 | CC(C)C[C@H](NC(=O)[C@@H](N)Cc1ccccn1)B(O)O
8.96 | CC(C)C[C@H](NC(=O)[C@H](Cc1ccccn1)NC(=O)C1CCCCC1)B(O)O
9.77 | CC(=O)N[C@@H](Cc1cccc2ccccc12)C(=O)N[C@@H](CC(C)C)B(O)O
8.96 | CN[C@@H](Cc1cccc2ccccc12)C(=O)N[C@@H](CC(C)C)B(O)O
9.77 | CC(C)C[C@H](NC(=O)[C@H](Cc1ccccc1)NC(=O)c1ccoc1)B(O)O

pKi | Structure (SMILES)
7 | CB(O)[C@H](CC(C)C)NC(=O)[C@H](Cc1cccc2ccccc12)NC(=O)N1CCOCC1
9.29 | CC(C)C[C@H](NC(=O)[C@H](Cc1ccc(O)cc1)NC(=O)N1CCOCC1)B(O)O
8.89 | CC(C)C[C@H](NC(=O)[C@H](Cc1cccnc1)NC(=O)N1CCOCC1)B(O)O
10.12 | CC(C)C[C@H](NC(=O)[C@H](Cc1cccc2ccccc12)NC(=O)c1ccc2ccccc2n1)B(O)O
9.12 | CC(C)C[C@H](NC(=O)[C@H](Cc1ccccn1)NC(=O)c1ccccc1)B(O)O
8.36 | CC(C)C[C@H](NC(=O)[C@H](Cc1ccccc1)NS(=O)(=O)c1cccc2cccnc12)B(O)O
8.2 | CC(C)C[C@H](NC(=O)[C@H](Cc1ccccn1)NC(=O)N1CCOCC1)B(O)O
8.89 | CC(=O)N[C@@H](Cc1c[nH]c2ccccc12)C(=O)N[C@@H](CC(C)C)B(O)O
10.08 | CC(C)C[C@H](NC(=O)[C@H](Cc1cccc2ccccc12)NC(=O)OCc1ccccc1)B(O)O
9.02 | CC(C)C[C@H](NC(=O)[C@H](Cc1cccc2ccccc12)N(C)C(=O)OCc1ccccc1)B(O)O
9.89 | CC(C)C[C@H](NC(=O)[C@H](Cc1ccccc1)NC(=O)OCc1ccccc1)B(O)O
6.19 | CB(C)[C@H](CC(C)C)NC(=O)[C@H](Cc1cccc2ccccc12)NC(=O)N1CCOCC1
9.64 | CC(C)C[C@H](NC(=O)[C@H](Cc1ccc(OCc2ccccc2)cc1)NC(=O)N1CCOCC1)B(O)O
9.14 | CC(C)CC(NC(=O)[C@H](Cc1cccc2ccccc12)NC(=O)N1CCOCC1)B(O)O (single isomer, unassigned)
8.77 | CC(C)CC(NC(=O)[C@H](Cc1cccc2ccccc12)NS(=O)(=O)c1cccc2cccnc12)B(O)O (single isomer, unassigned)
10 | CC(C)CC(NC(=O)[C@H](Cc1cccc2ccccc12)NC(=O)OCc1ccccc1)B1O[C@@H]2[C@H]3C[C@@H](C[C@]2(C)O1)C3(C)C (single isomer, unassigned)
9.22 | CC(C)C[C@H](NC(=O)[C@H](Cc1ccccc1)NC(=O)c1cnccn1)B(O)O [BORTEZOMIB]
